Measurements as given in article PMC2919811 (Analytical biochemistry, 2010).
Several values for one entry are separate records, joined by “and”; a condition that tells them apart may be missing. Equal entries are not always repeated.

Key:
[1] = molecular target: T1, OCT1 (Homo sapiens, UniProt O15245); assay: Cellular accumulation in CHO cells transiently transfected with OCT1; assay type: cell-based; conditions: 10 μM 8-FcA, 20 minutes
T1 sequence (O15245 1-554): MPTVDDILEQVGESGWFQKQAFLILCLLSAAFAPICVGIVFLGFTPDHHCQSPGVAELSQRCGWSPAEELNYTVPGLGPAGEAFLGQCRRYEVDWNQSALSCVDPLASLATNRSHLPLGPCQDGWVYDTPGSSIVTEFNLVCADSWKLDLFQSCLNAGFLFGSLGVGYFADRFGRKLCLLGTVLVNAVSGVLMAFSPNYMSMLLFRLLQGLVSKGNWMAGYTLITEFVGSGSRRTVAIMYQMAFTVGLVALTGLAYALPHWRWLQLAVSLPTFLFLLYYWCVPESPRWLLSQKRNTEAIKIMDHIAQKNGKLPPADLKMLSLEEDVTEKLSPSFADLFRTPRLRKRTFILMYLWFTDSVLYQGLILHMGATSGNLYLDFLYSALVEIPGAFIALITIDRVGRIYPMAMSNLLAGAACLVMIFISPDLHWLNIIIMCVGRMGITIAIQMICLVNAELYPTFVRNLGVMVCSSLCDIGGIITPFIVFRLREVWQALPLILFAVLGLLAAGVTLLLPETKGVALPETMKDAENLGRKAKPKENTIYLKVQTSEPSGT

[2] = molecular target: T2, NTCP (Homo sapiens, UniProt Q14973); assay: Cellular accumulation in CHO cells transiently transfected with NTCP; assay type: cell-based; conditions: 10 μM 8-FcA, 20 minutes
T2 sequence (Q14973 1-349): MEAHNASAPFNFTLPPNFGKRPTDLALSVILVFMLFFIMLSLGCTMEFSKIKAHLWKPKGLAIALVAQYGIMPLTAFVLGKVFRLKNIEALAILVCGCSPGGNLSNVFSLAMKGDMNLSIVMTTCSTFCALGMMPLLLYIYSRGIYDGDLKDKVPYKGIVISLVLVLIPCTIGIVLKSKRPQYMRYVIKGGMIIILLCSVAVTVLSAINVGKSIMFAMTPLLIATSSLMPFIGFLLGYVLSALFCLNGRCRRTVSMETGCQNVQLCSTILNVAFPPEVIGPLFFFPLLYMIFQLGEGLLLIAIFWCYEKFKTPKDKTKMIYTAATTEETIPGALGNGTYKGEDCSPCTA

[3] = molecular target: T3, OAT3 (Homo sapiens, UniProt Q8TCC7); assay type: cell-based; conditions: 10 μM 8-FcA, 20 minutes
T3 sequence (Q8TCC7 1-542): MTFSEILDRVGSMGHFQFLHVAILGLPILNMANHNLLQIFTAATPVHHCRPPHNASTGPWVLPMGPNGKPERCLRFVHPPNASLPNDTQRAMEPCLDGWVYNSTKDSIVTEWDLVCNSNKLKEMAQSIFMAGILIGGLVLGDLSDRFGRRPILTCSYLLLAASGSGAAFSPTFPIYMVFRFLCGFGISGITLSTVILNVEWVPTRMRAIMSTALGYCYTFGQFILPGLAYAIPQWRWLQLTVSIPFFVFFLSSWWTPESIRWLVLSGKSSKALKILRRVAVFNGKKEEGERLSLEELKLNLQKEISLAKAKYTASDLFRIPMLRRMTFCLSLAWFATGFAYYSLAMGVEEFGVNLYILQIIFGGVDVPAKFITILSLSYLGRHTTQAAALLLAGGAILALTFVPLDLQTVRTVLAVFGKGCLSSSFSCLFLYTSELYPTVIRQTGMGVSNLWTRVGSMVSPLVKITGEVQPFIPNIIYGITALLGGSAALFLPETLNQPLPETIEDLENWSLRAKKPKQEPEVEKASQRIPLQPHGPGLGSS

[4] = molecular target: T4, OATP1B3 (Homo sapiens, UniProt Q9NPD5); assay: Cellular accumulation in CHO cells transiently transfected with OATP1B3; conditions: 10 μM 8-FcA, 20 minutes
T4 sequence (Q9NPD5 1-702): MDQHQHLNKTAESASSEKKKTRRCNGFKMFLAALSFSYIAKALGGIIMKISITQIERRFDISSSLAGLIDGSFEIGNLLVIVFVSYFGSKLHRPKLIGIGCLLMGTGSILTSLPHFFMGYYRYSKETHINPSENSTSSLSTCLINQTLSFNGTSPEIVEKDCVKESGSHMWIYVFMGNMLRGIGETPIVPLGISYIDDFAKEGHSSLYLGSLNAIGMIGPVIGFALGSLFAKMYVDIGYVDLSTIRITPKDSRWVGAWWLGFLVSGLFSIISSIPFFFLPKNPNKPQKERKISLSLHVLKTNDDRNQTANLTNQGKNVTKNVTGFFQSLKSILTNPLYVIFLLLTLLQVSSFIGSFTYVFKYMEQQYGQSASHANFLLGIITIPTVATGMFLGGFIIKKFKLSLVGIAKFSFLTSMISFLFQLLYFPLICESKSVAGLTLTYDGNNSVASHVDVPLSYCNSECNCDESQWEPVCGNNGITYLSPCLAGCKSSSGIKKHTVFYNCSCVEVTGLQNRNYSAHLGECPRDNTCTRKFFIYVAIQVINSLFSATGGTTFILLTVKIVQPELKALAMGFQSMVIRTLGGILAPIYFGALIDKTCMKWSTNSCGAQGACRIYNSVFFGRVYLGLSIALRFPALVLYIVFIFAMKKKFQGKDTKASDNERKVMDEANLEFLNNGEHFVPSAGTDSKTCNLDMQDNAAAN

[5] = molecular target: OATP1B1 (Homo sapiens, UniProt Q9Y6L6); assay: Substrate uptake and transport kinetics in CHO cells stably expressing OATP1B1
OATP1B1, sequence (Q9Y6L6 whole entry): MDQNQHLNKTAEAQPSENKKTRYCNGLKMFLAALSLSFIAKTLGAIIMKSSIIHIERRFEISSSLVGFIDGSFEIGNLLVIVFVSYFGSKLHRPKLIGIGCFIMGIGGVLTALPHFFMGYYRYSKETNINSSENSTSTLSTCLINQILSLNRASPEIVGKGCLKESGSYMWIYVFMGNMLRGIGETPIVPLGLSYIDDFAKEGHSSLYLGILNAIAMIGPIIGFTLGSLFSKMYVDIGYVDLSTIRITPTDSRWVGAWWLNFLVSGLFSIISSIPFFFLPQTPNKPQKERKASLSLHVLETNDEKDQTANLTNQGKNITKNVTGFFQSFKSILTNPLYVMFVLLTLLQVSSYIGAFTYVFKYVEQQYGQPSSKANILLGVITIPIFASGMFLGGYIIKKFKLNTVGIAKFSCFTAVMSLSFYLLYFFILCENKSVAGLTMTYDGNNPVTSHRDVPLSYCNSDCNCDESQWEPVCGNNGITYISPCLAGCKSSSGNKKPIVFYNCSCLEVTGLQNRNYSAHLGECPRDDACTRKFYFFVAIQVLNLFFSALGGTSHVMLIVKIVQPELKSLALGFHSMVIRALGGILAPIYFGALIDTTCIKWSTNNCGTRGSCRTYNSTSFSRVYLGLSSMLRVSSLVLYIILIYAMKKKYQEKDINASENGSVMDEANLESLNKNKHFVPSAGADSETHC

[6] = molecular target: T4, OATP1B3; assay: Substrate uptake and transport kinetics in CHO cells stably expressing OATP1B3
[7] = 2 μM substrate, five minute accumulation, CHOvector = 1
[8] = 8-FcA 0.25-25 μM, 10 min uptake, CHOvector subtracted, mean ± standard error

Nc1ncnc2c1nc(SCCNC(=S)Nc1ccc(-c3c4ccc(=O)cc-4oc4cc(O)ccc34)c(C(=O)O)c1)n2[C@@H]1O[C@@H]2COP(=O)(O)O[C@H]2[C@H]1O [8-FcA, 8-(2-[Fluoresceinyl]aminoethylthio) adenosine-3', 5'-cyclic monophosphate] was tested, and the “cellular accumulation by fluorescence microscopy, OCT1” value [1] was “negative”, the “cellular accumulation by fluorescence microscopy, NTCP” value [2] was “negative” and the “cellular accumulation by fluorescence microscopy, OAT3” value [3] was “negative”. The “cellular accumulation by fluorescence microscopy, OATP1B3” value [4] was “readily accumulated”, the “transport efficiency, Vmax/Km (OATP1B1)” value [5] was 0.069 μL/min/cm^2 and the “cellular accumulation relative to control, CHOOATP1B1” value [5, 7] was “robust accumulation”. The “Vmax of OATP1B1-mediated transport” value [5, 8] was 0.20 pmol/min/cm^2 and 0.20±0.01 pmol/min/cm^2, the “transport efficiency, Vmax/Km (OATP1B3)” value [6] was 0.183 μL/min/cm^2 and the “cellular accumulation relative to control, CHOOATP1B3” value [6, 7] was “robust accumulation”. For the same compound, the “Vmax of OATP1B3-mediated transport” value [6, 8] was 0.33 pmol/min/cm^2 and 0.33±0.02 pmol/min/cm^2.
